Legend:
Assay in all cases: biochemical
[1] = target: T1, CYP1A2 (Homo sapiens, UniProt P05177)
T1 sequence (P05177 1-516): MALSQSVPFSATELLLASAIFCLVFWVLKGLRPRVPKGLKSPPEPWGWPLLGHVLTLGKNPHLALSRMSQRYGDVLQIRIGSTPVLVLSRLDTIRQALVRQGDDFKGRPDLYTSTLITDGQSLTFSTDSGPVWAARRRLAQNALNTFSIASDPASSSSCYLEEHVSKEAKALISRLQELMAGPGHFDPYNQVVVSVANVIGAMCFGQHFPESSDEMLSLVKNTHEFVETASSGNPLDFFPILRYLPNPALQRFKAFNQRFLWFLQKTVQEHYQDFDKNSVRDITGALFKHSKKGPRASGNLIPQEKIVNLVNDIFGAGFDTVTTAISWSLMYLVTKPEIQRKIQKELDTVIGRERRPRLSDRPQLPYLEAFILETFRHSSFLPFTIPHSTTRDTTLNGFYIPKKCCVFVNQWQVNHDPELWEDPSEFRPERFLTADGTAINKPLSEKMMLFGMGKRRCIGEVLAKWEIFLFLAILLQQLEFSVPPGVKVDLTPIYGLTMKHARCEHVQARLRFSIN

[2] = target: CYP2C9 (Homo sapiens, UniProt P11712)
[3] = target: CYP2C19 (Homo sapiens, UniProt P33261)
[4] = target: CYP2D6 (Homo sapiens, UniProt P10635)
[5] = target: CYP3A4 (Homo sapiens, UniProt P08684)
Sequence of CYP3A4 (P08684 whole entry): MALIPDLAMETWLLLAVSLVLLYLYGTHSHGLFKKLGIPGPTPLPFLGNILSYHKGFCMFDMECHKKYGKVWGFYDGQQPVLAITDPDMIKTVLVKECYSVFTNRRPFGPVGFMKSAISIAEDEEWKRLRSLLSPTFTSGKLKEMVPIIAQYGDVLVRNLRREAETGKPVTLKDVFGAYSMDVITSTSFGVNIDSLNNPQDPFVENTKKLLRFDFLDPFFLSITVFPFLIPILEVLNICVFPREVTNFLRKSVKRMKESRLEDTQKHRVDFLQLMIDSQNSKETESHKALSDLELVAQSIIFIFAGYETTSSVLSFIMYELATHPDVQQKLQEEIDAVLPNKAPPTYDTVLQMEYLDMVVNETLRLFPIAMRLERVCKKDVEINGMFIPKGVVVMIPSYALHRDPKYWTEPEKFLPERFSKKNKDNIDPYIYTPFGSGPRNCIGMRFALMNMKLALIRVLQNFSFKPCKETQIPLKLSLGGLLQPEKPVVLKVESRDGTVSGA

Sequence of CYP2C9 (P11712 whole entry): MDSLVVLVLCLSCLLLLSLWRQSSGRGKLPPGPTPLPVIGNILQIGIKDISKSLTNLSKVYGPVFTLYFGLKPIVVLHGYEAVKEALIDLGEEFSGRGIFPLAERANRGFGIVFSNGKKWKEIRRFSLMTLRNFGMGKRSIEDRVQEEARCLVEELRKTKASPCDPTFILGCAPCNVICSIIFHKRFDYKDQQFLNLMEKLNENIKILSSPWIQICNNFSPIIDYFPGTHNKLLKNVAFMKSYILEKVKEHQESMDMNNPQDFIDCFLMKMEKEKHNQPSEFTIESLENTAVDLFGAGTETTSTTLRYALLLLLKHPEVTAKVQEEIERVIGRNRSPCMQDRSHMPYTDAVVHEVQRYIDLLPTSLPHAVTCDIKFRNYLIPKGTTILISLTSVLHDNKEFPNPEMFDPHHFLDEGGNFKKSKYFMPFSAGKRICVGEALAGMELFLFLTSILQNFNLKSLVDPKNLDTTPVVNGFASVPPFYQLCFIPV
Sequence of CYP2D6 (P10635 whole entry): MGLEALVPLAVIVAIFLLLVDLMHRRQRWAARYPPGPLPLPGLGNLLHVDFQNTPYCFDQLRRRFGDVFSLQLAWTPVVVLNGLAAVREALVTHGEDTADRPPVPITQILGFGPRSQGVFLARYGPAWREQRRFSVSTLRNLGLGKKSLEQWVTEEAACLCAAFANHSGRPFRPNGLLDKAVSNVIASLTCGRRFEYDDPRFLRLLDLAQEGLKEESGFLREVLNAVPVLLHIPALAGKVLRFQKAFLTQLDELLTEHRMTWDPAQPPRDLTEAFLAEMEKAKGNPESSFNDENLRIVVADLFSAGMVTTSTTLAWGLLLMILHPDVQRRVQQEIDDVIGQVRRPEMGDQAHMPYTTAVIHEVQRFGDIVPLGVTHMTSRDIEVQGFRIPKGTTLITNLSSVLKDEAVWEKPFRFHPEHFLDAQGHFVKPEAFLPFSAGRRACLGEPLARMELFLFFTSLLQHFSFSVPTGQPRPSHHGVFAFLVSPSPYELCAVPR
Sequence of CYP2C19 (P33261 whole entry): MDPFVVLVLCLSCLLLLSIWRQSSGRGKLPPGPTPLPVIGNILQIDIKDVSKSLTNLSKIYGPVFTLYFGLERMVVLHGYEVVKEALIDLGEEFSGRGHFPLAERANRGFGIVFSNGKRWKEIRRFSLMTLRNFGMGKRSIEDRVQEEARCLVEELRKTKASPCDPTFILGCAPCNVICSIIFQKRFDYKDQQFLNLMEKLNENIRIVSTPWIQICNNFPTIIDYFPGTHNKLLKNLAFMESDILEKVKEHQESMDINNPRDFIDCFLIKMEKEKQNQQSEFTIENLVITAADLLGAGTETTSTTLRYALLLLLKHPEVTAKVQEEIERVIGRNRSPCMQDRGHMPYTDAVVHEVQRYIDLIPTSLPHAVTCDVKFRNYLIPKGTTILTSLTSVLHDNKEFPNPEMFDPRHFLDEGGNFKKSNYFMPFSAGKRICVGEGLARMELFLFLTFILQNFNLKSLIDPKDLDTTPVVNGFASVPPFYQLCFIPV

Row | Structure (SMILES) | IC50 [1] | IC50 [2] | IC50 [3] | IC50 [4] | IC50 [5]
1 | CON=C(C(=O)O)c1nc2ccccc2n([C@H]2C[C@H]3CCC[C@@H](C2)N3C2CC3CCCCC(C3)C2)c1=O (stereo partly shown) [Compound 17] | > 20 µM | > 20 µM | > 20 µM | > 20 µM | > 20 µM
2 | CCN(CC)C(=O)CO/N=C(\C(=O)O)c1nc2ccccc2n([C@H]2C[C@H]3CCC[C@@H](C2)N3C2CC3CCCC(C3)C2)c1=O (stereo partly drawn) [Compound 5, [4-((1R,3R,7S)-9-bicyclo[3.3.1]non-3-yl-9-aza-bicyclo[3.3.1]non-3-yl)-3-oxo-3,4-dihydro-quinoxalin-2-yl]-diethylcarbamoylmethoxyimino-acetic acid] | > 20 µM | > 20 µM | > 20 µM | > 20 µM | > 20 µM
3 | CC(C)ON=C(C(=O)O)c1nc2ccccc2n([C@H]2C[C@H]3CCC[C@@H](C2)N3C2CC3CCCC(C3)C2)c1=O (stereo partly shown) [Compound 31] | > 20 µM | > 20 µM | > 20 µM | > 20 µM | > 20 µM
4 | CO/N=C(\C(=O)O)c1nc2ccccc2n([C@H]2C[C@H]3CC[C@@H](C2)N3C2CC3CCCCC(C3)C2)c1=O (stereo partly drawn) [Compound 20, (Z)-2-(4-((1R,3R)-8-(bicyclo[4.3.1]decan-8-yl)-8-azabicyclo[3.2.1]octan-3-yl)-3-oxo-3,4-dihydroquinoxalin-2-yl)-2-(methoxyimino)acetic acid] | > 20 µM | > 20 µM | > 20 µM | > 20 µM | > 20 µM
5 | COCCO/N=C(\C(=O)O)c1nc2ccccc2n([C@H]2C[C@H]3CCC[C@@H](C2)N3C2CC3CCCCC(C3)C2)c1=O (stereo partly shown) [Compound 46] | > 20 µM | > 20 µM | > 20 µM | > 20 µM | > 20 µM
6 | N#CC(=NOCC(=O)O)c1nc2ccccc2n([C@H]2C[C@H]3CCC[C@@H](C2)N3C2CC3CCCC(C3)C2)c1=O (stereo partly drawn) [Compound 65, 2-((((4-((1R,1′R,3r,3′R,5S,5′S)-[3,9′-bi(9′-azabicyclo[3.3.1]nonan)]-3′-yl)-3-oxo-3,4-dihydroquinoxalin-2-yl)(cyano)methylene)amino)oxy)acetic acid] | > 20 µM | > 20 µM | > 20 µM | > 20 µM | > 20 µM
7 | CCN(CC)CCO/N=C(\CCC(=O)O)c1nc2ccccc2n(C2C[C@H]3CCC[C@@H](C2)N3C2C[C@@H]3C[C@@H](C)C[C@H](C2)C3)c1=O (stereo partly shown) [Compound 27] | > 20 µM | > 20 µM |  | 8.7 µM | 8.9 µM
8 | NC(=O)CO/N=C(\CCC(=O)O)c1nc2ccccc2n([C@H]2C[C@H]3CCC[C@@H](C2)N3C2CC3CCCC(C3)C2)c1=O (stereo partly shown) [Compound 39] | > 20 µM | > 20 µM | > 20 µM | > 20 µM | > 20 µM
9 | C/C(=N\OCC(=O)O)c1nc2ccccc2n([C@H]2C[C@H]3CCC[C@@H](C2)N3C2CC3CCCCC(C3)C2)c1=O (stereo partly drawn) [Compound 24, 2-((E)-1-(4-((1R,3R)-9-(bicyclo[4.3.1]decan-8-yl)-9-azabicyclo[3.3.1]nonan-3-yl)-3-oxo-3,4-dihydroquinoxalin-2-yl)ethylideneaminooxy)acetic acid] | > 20 µM | > 20 µM | > 20 µM | > 20 µM | > 20 µM
10 | NC(=O)CO/N=C(\C(=O)O)c1nc2ccccc2n([C@H]2C[C@H]3CCC[C@@H](C2)N3C2CC3CCCC(C3)C2)c1=O (stereo partly drawn) [Compound 38, (Z)-2-(2-amino-2-oxoethoxyimino)-2-(4-((1R,3R)-9-(bicyclo[3.3.1]nonan-3-yl)-9-azabicyclo[3.3.1]nonan-3-yl)-3-oxo-3,4-dihydroquinoxalin-2-yl)acetic acid] | > 20 µM | > 20 µM | > 20 µM | > 20 µM | > 20 µM
11 | CO/N=C(\CCC(=O)O)c1nc2ccccc2n([C@H]2C[C@H]3CCC[C@@H](C2)N3C2CCCCCCCCC2)c1=O [Compound 9, 4-[4-((1R,3R,7S)-9-cyclodecyl-9-aza-bicyclo[3.3.1]non-3-yl)-3-oxo-3,4-dihydro-quinoxalin-2-yl]-4-methoxyimino-butyric acid] | > 20 µM | > 20 µM | > 20 µM | > 20 µM | > 20 µM
12 | CCON=C(C(=O)O)c1nc2ccccc2n([C@H]2C[C@H]3CCC[C@@H](C2)N3C2CC3CCCC(C3)C2)c1=O (stereo partly shown) [Compound 30] | > 20 µM | > 20 µM | > 20 µM | > 20 µM | > 20 µM
13 | NC(=O)CCC(=NOCC(=O)O)c1nc2ccccc2n([C@H]2C[C@H]3CCC[C@@H](C2)N3C2CC3CCCC(C3)C2)c1=O (stereo partly shown) [Compound 44] | > 20 µM | > 20 µM | > 20 µM | > 20 µM | > 20 µM
14 | CC1CC2CC(C1)CC(N1[C@@H]3CCC[C@H]1C[C@@H](n1c(=O)c(/C(CCC(=O)O)=N/OCCCN(C)C)nc4ccccc41)C3)C2 (stereo partly shown) [Compound 28] | > 20 µM | > 20 µM |  | 3 µM | 6.1 µM
15 | CC(O/N=C(\C(=O)O)c1nc2ccccc2n([C@H]2C[C@H]3CCC[C@@H](C2)N3C2CC3CCCC(C3)C2)c1=O)C(N)=O (stereo partly shown) [Compound 52] | > 20 µM | > 20 µM | > 20 µM | > 20 µM | > 20 µM
16 | C/C(=N\OCC(=O)O)c1nc2ccccc2n([C@H]2C[C@H]3CCC[C@@H](C2)N3C2CC3CCCC(C3)C2)c1=O (stereo partly shown) [Compound 16] | > 20 µM | > 20 µM | > 20 µM | > 20 µM | > 20 µM
17 | CN(C)C(=O)C(=NOCC(=O)O)c1nc2ccccc2n([C@H]2C[C@H]3CCC[C@@H](C2)N3C2CC3CCCC(C3)C2)c1=O (stereo partly shown) [Compound 51] | > 20 µM | > 20 µM | > 20 µM | > 20 µM | > 20 µM
18 | NC(=O)CO/N=C(\C(N)=O)c1nc2ccccc2n([C@H]2C[C@H]3CCC[C@@H](C2)N3C2CC3CCCCC(C3)C2)c1=O (stereo partly shown) [Compound 66] | > 20 µM | > 20 µM | > 20 µM | > 20 µM | > 20 µM
19 | CC(C)(ON=C(C(N)=O)c1nc2ccccc2n([C@H]2C[C@H]3CCC[C@@H](C2)N3C2CC3CCCC(C3)C2)c1=O)C(=O)O (stereo partly shown) [Compound 57] | > 20 µM | > 20 µM | > 20 µM | > 20 µM | > 20 µM
20 | CON=C(CCC(=O)O)c1nc2ccccc2n([C@H]2C[C@H]3CC[C@@H](C2)N3C2CC3CCCCC(C3)C2)c1=O (stereo partly drawn) [Compound 12, 4-(4-((1R,3R)-8-(bicyclo[4.3.1]decan-8-yl)-8-azabicyclo[3.2.1]octan-3-yl)-3-oxo-3,4-dihydroquinoxalin-2-yl)-4-(methoxyimino)butanoic acid] | > 20 µM | > 20 µM | > 20 µM | > 20 µM | > 20 µM
21 | NC(=O)CCC(=NOCC(=O)O)c1nc2ccccc2n([C@H]2C[C@H]3CCC[C@@H](C2)N3C2CC3CCCCC(C3)C2)c1=O (stereo partly shown) [Compound 59] | > 20 µM | > 20 µM | > 20 µM | > 20 µM | > 20 µM
22 | CC(C)ON=C(C(=O)O)c1nc2ccccc2n([C@H]2C[C@H]3CC[C@@H](C2)N3C2CC3CCCCC(C3)C2)c1=O (stereo partly drawn) [Compound 37, [4-((1S,3R,5R)-(1R,6S,8S)-8-bicyclo[4.3.1]dec-8-yl-8-aza-bicyclo[3.2.1]oct-3-yl)-3-oxo-3,4-dihydro-quinoxalin-2-yl]-isopropoxyimino-acetic acid] | > 20 µM | > 20 µM | > 20 µM | > 20 µM | > 20 µM
23 | CNC(=O)/C(=N\OCC(=O)O)c1nc2ccccc2n([C@H]2C[C@H]3CCC[C@@H](C2)N3C2CC3CCCC(C3)C2)c1=O (stereo partly shown) [Compound 43] | > 20 µM | > 20 µM | > 20 µM | > 20 µM | > 20 µM
24 | CC[C@@H]1C[C@H]2CC(N3[C@@H]4CCC[C@H]3CC(n3c(=O)c(/C(CCC(=O)O)=N/OCCCN(C)C)nc5ccccc53)C4)C[C@@H](C1)C2 (stereo partly shown) [Compound 35] | > 20 µM | > 20 µM |  | > 20 µM | > 20 µM
25 | CCO/N=C(\CCC(=O)O)c1nc2ccccc2n([C@H]2C[C@H]3CCC[C@@H](C2)N3C2CC3CC(CC)CC(C3)C2)c1=O (stereo partly shown) [Compound 26] | > 20 µM | > 20 µM |  | > 20 µM | > 20 µM
26 | CC[C@@H]1C[C@H]2CC(N3[C@@H]4CCC[C@H]3CC(n3c(=O)c(/C(CCC(=O)O)=N/OC)nc5ccccc53)C4)C[C@@H](C1)C2 (stereo partly shown) [Compound 25] | > 20 µM | > 20 µM |  | > 20 µM | > 20 µM
27 | CC1CC2CC(C1)CC(N1[C@@H]3CCC[C@H]1C[C@@H](n1c(=O)c(/C(CCC(=O)O)=N/OCCN(C)C)nc4ccccc41)C3)C2 (stereo partly shown) [Compound 29] | > 20 µM | > 20 µM |  | 11.6 µM | > 20 µM
28 | CCC1CC2CC(C1)CC(N1[C@@H]3CCC[C@H]1C[C@@H](n1c(=O)c(/C(CCC(=O)O)=N/OCCN(C)C)nc4ccccc41)C3)C2 (stereo partly shown) [Compound 34] | 16.1 µM | > 20 µM |  | > 20 µM | 17.5 µM
